Activity calls are given as the source filed them. The calls are words filed in the database; no cut-off is given here.
How the values were obtained:
[1] = tested on: HL-60; test: Induction of apoptosis in human HL60 cells assessed as chromatin condensation at 1 uM after 6 hrs by Hoechst 33258 staining based fluorescence microscopy; assay type: functional, cell-based
[2] = tested on: U-937; test: Induction of apoptosis in human U937 cells assessed as caspase-3-mediated PARP hydrolysis at 1 uM after 6 hrs by Western blot analysis; assay type: functional, cell-based
[3] = tested on: MOLT-3; test: Induction of apoptosis in human MOLT3 cells assessed as cytochrome c release at 1 uM after 6 hrs by Western blot analysis; assay type: functional, cell-based
[4] = tested on: HL-60; test: Induction of apoptosis in human HL60 cells assessed as procaspase-8 activation at 1 uM after 6 hrs by Western blot analysis; assay type: functional, cell-based
[5] = tested on: U-937; test: Induction of apoptosis in human U937 cells assessed as caspase9-mediated LEHD-pNA cleavage at 1 uM after 6 hrs by colorimetric assay; assay type: functional, cell-based
[6] = tested on: U-937; test: Cytotoxicity against human U937 cells after 4 hrs by MTT assay; assay type: functional, cell-based; conditions: for IC50: U-937, 4 h
[7] = tested on: HL-60; test: Induction of apoptosis in human HL60 cells assessed as caspase 8-mediated IETD-pNA cleavage at 1 uM after 6 hrs by colorimetric assay; assay type: functional, cell-based
[8] = tested on: HL-60; test: Induction of apoptosis in human HL60 cells assessed as procaspase-3 activation at 1 uM after 6 hrs by Western blot analysis; assay type: functional, cell-based
[9] = tested on: U-937; test: Induction of apoptosis in human U937 cells assessed as cytochrome c release at 1 uM after 6 hrs by Western blot analysis; assay type: functional, cell-based
[10] = tested on: HL-60; test: Cytotoxicity against human HL60 cells after 4 hrs by MTT assay; assay type: functional, cell-based; conditions: for IC50: HL-60, 4 h
[11] = tested on: U-937; test: Induction of apoptosis in human U937 cells assessed as procaspase-8 activation at 1 uM after 6 hrs by Western blot analysis; assay type: functional, cell-based
[12] = tested on: U-937; test: Induction of apoptosis in human U937 cells assessed as caspase 3/7-mediated DEVD-pNA cleavage at 1 uM after 6 hrs by colorimetric assay; assay type: functional, cell-based
[13] = tested on: U-937; test: Induction of apoptosis in human U937 cells assessed as caspase 8-mediated IETD-pNA cleavage at 1 uM after 6 hrs by colorimetric assay; assay type: functional, cell-based
[14] = tested on: HL-60; test: Induction of apoptosis in human HL60 cells assessed as appearance of apoptotic bodies at 1 uM after 6 hrs by Hoechst 33258 staining based fluorescence microscopy; assay type: functional, cell-based
[15] = tested on: HL-60; test: Induction of apoptosis in human HL60 cells assessed as chromatin hydrolysis at 1 uM after 6 hrs by agarose gel electrophoresis; assay type: functional, cell-based
[16] = tested on: HL-60; test: Induction of apoptosis in human HL60 cells assessed as procaspase-7 activation at 1 uM after 6 hrs by Western blot analysis; assay type: functional, cell-based
[17] = tested on: U-937; test: Induction of apoptosis in human U937 cells assessed as caspase 3/7-mediated DEVD-pNA cleavage at 1 uM after 6 hrs by colorimetric assay relative to control; assay type: functional
[18] = tested on: U-937; test: Induction of apoptosis in human U937 cells assessed as procaspase-9 activation at 1 uM after 6 hrs by Western blot analysis; assay type: functional, cell-based
[19] = tested on: U-937; test: Induction of apoptosis in human U937 cells assessed as hypodiploid DNA content at 3 uM after 6 hrs by propidium iodide staining-based flow cytometry relative to control; assay type: functional
[20] = tested on: CCRF-CEM; test: Cytotoxicity against human CEM cells after 3 days by Coulter counter analysis; assay type: functional, cell-based; conditions: 72 h
[21] = tested on: HL-60; test: Induction of apoptosis in human HL60 cells assessed as caspase 3/7-mediated DEVD-pNA cleavage at 1 uM after 6 hrs by colorimetric assay; assay type: functional, cell-based
[22] = tested on: HL-60; test: Induction of apoptosis in human HL60 cells assessed as cytochrome c release at 1 uM after 6 hrs by Western blot analysis; assay type: functional, cell-based
[23] = tested on: HL-60; test: Induction of apoptosis in human HL60 cells assessed as caspase9-mediated LEHD-pNA cleavage at 1 uM after 6 hrs by colorimetric assay; assay type: functional, cell-based
[24] = tested on: HL-60; test: Induction of apoptosis in human HL60 cells assessed as hypodiploid DNA content at 3 uM after 6 hrs by propidium iodide staining-based flow cytometry relative to control; assay type: functional
[25] = tested on: MOLT-3; test: Induction of apoptosis in human MOLT3 cells assessed as caspase9-mediated LEHD-pNA cleavage at 1 uM after 6 hrs by colorimetric assay; assay type: functional, cell-based
[26] = tested on: HL-60; test: Induction of apoptosis in human HL60 cells assessed as procaspase-9 activation at 1 uM after 6 hrs by Western blot analysis; assay type: functional, cell-based
[27] = tested on: MOLT-3; test: Induction of apoptosis in human MOLT3 cells assessed as caspase 3/7-mediated DEVD-pNA cleavage at 1 uM after 6 hrs by colorimetric assay relative to control; assay type: functional
[28] = tested on: MOLT-3; test: Induction of apoptosis in human MOLT3 cells assessed as caspase 8-mediated IETD-pNA cleavage at 1 uM after 6 hrs by colorimetric assay; assay type: functional, cell-based
[29] = tested on: HeLa; test: Cytotoxicity against human HeLa cells after 4 days by Coulter counter analysis; assay type: functional, cell-based; conditions: 96 h
[30] = tested on: FM3A; test: Cytotoxicity against mouse FM3A cells after 2 days by Coulter counter analysis; assay type: functional, cell-based; conditions: 48 h
[31] = tested on: U-937; test: Induction of apoptosis in human U937 cells assessed as procaspase-3 activation at 1 uM after 6 hrs by Western blot analysis; assay type: functional, cell-based
[32] = tested on: MOLT-3; test: Induction of apoptosis in human MOLT3 cells assessed as procaspase-9 activation at 1 uM after 6 hrs by Western blot analysis; assay type: functional, cell-based
[33] = tested on: U-937; test: Induction of apoptosis in human U937 cells assessed as procaspase-6 activation at 1 uM after 6 hrs by Western blot analysis; assay type: functional, cell-based
[34] = tested on: U-937; test: Induction of apoptosis in human U937 cells assessed as chromatin hydrolysis at 1 uM after 6 hrs by agarose gel electrophoresis; assay type: functional, cell-based
[35] = tested on: L1210; test: Cytotoxicity against mouse L1210 cells after 2 days by Coulter counter analysis; assay type: functional, cell-based; conditions: L1210, 48 h
[36] = tested on: U-937; test: Induction of apoptosis in human U937 cells assessed as appearance of apoptotic bodies at 1 uM after 6 hrs by Hoechst 33258 staining based fluorescence microscopy; assay type: functional, cell-based
[37] = tested on: MOLT-3; test: Induction of apoptosis in human MOLT3 cells assessed as procaspase-3 activation at 1 uM after 6 hrs by Western blot analysis; assay type: functional, cell-based
[38] = tested on: HL-60; test: Induction of apoptosis in human HL60 cells assessed as procaspase-6 activation at 1 uM after 6 hrs by Western blot analysis; assay type: functional, cell-based
[39] = tested on: MOLT-3; test: Induction of apoptosis in human MOLT3 cells assessed as chromatin hydrolysis at 1 uM after 6 hrs by agarose gel electrophoresis; assay type: functional, cell-based
[40] = tested on: MOLT-3; test: Cytotoxicity against human MOLT3 cells after 4 hrs by MTT assay; assay type: functional, cell-based; conditions: for IC50: MOLT-3, 4 h
[41] = tested on: MOLT-3; test: Induction of apoptosis in human MOLT3 cells assessed as procaspase-6 activation at 1 uM after 6 hrs by Western blot analysis; assay type: functional, cell-based
[42] = tested on: U-937; test: Induction of apoptosis in human U937 cells assessed as chromatin condensation at 1 uM after 6 hrs by Hoechst 33258 staining based fluorescence microscopy; assay type: functional, cell-based
[43] = tested on: MOLT-3; test: Induction of apoptosis in human MOLT3 cells assessed as caspase 3/7-mediated DEVD-pNA cleavage at 1 uM after 6 hrs by colorimetric assay; assay type: functional, cell-based
[44] = tested on: MOLT-3; test: Induction of apoptosis in human MOLT3 cells assessed as procaspase-7 activation at 1 uM after 6 hrs by Western blot analysis; assay type: functional, cell-based
[45] = tested on: MOLT-3; test: Induction of apoptosis in human MOLT3 cells assessed as caspase-3-mediated PARP hydrolysis at 1 uM after 6 hrs by Western blot analysis; assay type: functional, cell-based
[46] = tested on: MOLT-3; test: Induction of apoptosis in human MOLT3 cells assessed as procaspase-8 activation at 1 uM after 6 hrs by Western blot analysis; assay type: functional, cell-based
[47] = tested on: U-937; test: Induction of apoptosis in human U937 cells assessed as procaspase-7 activation at 1 uM after 6 hrs by Western blot analysis; assay type: functional, cell-based
[48] = tested on: HL-60; test: Induction of apoptosis in human HL60 cells assessed as caspase-3-mediated PARP hydrolysis at 1 uM after 6 hrs by Western blot analysis; assay type: functional, cell-based
[49] = tested on: HL-60; test: Induction of apoptosis in human HL60 cells assessed as caspase 3/7-mediated DEVD-pNA cleavage at 1 uM after 6 hrs by colorimetric assay relative to control; assay type: functional

C=C(Br)C(=O)Nc1cccc(/C=C2\SC(=O)N(Cc3ccccc3)C2=O)c1
Activity [1]: Active
Activity [2]: Active
Activity [3]: Active
Activity [4]: Active
Activity [5]: Active
Activity [6]: Dose-dependent effect
IC50 [6]: 0.62 µM
Activity [7]: Active
Activity [8]: Active
Activity [9]: Active
Activity [10]: Dose-dependent effect
IC50 [10]: 0.69 µM
Activity [11]: Active
Activity [12]: Active
Activity [13]: Active
Activity [14]: Active
Activity [15]: Active
Activity [16]: Active
fold change (FC) [17]: >10
Activity [18]: Active
fold change (FC) [19]: 6
IC50 [20]: 0.51 µM
Activity [21]: Active
Activity [22]: Active
Activity [23]: Active
fold change (FC) [24]: 12
Activity [25]: Active
Activity [26]: Active
fold change (FC) [27]: >2
Activity [28]: Active
IC50 [29]: 1.4 µM
IC50 [30]: 0.81 µM
Activity [31]: Active
Activity [32]: Active
Activity [33]: Active
Activity [34]: Active
IC50 [35]: 0.38 µM
Activity [36]: Active
Activity [37]: Active
Activity [38]: Active
Activity [39]: inactive
Activity [40]: Dose-dependent effect
IC50 [40]: 0.6 µM
Activity [41]: Active
Activity [42]: Active
Activity [43]: Active
Activity [44]: Active
Activity [45]: Active
Activity [46]: Active
Activity [47]: Active
Activity [48]: Active
fold change (FC) [49]: >5

C=C(Br)C(=O)Nc1cccc(/C=C2\SC(=O)N(Cc3ccc(F)cc3)C2=O)c1
Activity [1]: Active
Activity [2]: Active
Activity [3]: Active
Activity [4]: Active
Activity [5]: Active
Activity [6]: Dose-dependent effect
IC50 [6]: 0.53 µM
Activity [7]: Active
Activity [8]: Active
Activity [9]: Active
Activity [10]: Dose-dependent effect
IC50 [10]: 0.77 µM
Activity [11]: Active
Activity [12]: Active
Activity [13]: Active
Activity [14]: Active
Activity [15]: Active
Activity [16]: Active
fold change (FC) [17]: >10
Activity [18]: Active
fold change (FC) [19]: 4
IC50 [20]: 0.68 µM
Activity [21]: Active
Activity [22]: Active
Activity [23]: Active
fold change (FC) [24]: 12
Activity [25]: Active
Activity [26]: Active
fold change (FC) [27]: >2
Activity [28]: Active
IC50 [29]: 0.8 µM
IC50 [30]: 0.92 µM
Activity [31]: Active
Activity [32]: Active
Activity [33]: Active
Activity [34]: Active
IC50 [35]: 0.68 µM
Activity [36]: Active
Activity [37]: Active
Activity [38]: Active
Activity [39]: inactive
Activity [40]: Dose-dependent effect
IC50 [40]: 0.64 µM
Activity [41]: Active
Activity [42]: Active
Activity [43]: Active
Activity [44]: Active
Activity [45]: Active
Activity [46]: Active
Activity [47]: Active
Activity [48]: Active
fold change (FC) [49]: >5

— ChEMBL document CHEMBL2375251, “Anticancer activity of novel hybrid molecules containing 5-benzylidene thiazolidine-2,4-dione” (Eur J Med Chem, 2013)
